Assays:
[1] = target: T1, purified bovine adrenal G6PDH (Bos taurus, UniProt F1MMK2); assay: Inhibition of purified bovine adrenal G6PDH; format: biochemical; conditions: for inhibition at 10 µM / inhibition at 1 µM / inhibition at 0.1 µM: read-out: Percent Inhibition (G6PDH); for G6PDH Inhibition relative to DHEA: Table 3, DHEA = 1×
T1 construct: full-length, wild type, no tag
From the text: The compounds listed below are screened as inhibitors of purified bovine adrenal G6PDH activity as one predictor of cancer preventive action. The assay for testing the inhibition of purified bovine adrenal G6PDH is according to the procedure by Oertel, G. W. and Rebelein, I. in Biochem. Biophys. Acta, 184, 459-460 (1969). The results are given below in Table I:
Both of the above tests, i.e., the inhibition of mammalian glucose-6-phosphate dehydrogenase (G6PDH) and the inhibition of tumor promoter (TPA) stimulation of ^3 H-thymidine incorporation in mouse epidermis are recognized as indicators of cancer prophylactic activity. The following Table compares the efficacy of representative compounds of the present invention in these two tests with that of DHEA: […]

[2] = Anti-obesity test (body weight, food consumption); format: in vivo, mouse (male A/J); conditions: Table 14; DHEA = 1×
Protocol: Male A/J mice (5 weeks old) were obtained from the Jackson Laboratory and were housed in polycarbonate cages (5 mice/cage) in animal quarters maintained at 24°±1° C. with 12 hours of light and 12 hours of darkness each day. One week after arrival, the mice were placed on a chow diet containing varying concentrations of DHEA or other steroid. Animals were weighed weekly; food consumption was determined weekly by subtracting the amount of food remaining in the cage from the amount added.
Male A/J (5 weeks old) were obtained from the Jackson Laboratory and were housed in polycarbonate cages (5 mice/cage) in animal quarters maintained at 24°±1° C. with 12 hours of light and 12 hours of darkness each day. One week after arrival, the mice were placed on a diet containing either DHEA, 19, or without steroid. Animals were weighed weekly. The concentration of DHEA or 19 used in the food was 0.54%.
Male A/J mice (5 weeks old) were obtained from the Jackson Laboratory and were housed in polycarbonate cages (5 mice/cage) in animal quarters maintained at 24°±1° C. with 12 hours of light and 12 hours of darkness each day. One week after arrival, the mice were placed on a show diet containing DHEA, 16, or 21 at 0.36%. Animals were weighed weekly.

[3] = system: TPA (Tumor Promoter) Stimulation of Mouse Epidermal DNA; assay: Inhibition of TPA stimulation of mouse epidermal DNA synthesis (3H-thymidine incorporation), oral; format: in vivo, mouse (ICR male); conditions: Table 3; DHEA = 1×; oral
From the text: Synthesis rate by orally administered steroids.
The inhibition of tumor promoter stimulation of mouse epidermal DNA synthesis rate by steroids may also contribute to cancer preventive activity. The following assay is used:
ICR male mice (7-9 weeks old) were shaved on the back 1-2 days before use. Only mice showing no hair regrowth were used. Animals were orally intubated with a particular steroid suspended by homogenization in sesame oil or with sesame oil alone (controls). One hour later TPA (10 μg in 0.2 ml of acetone) or acetone vehicle was applied topically to the shaved skin. Twenty hours later, mice were injected i.p. with 60 μCi of ^3 H-thymidine 20 minutes before sacrifice. The animals were killed by cervical dislocation and the residual hair was removed with a depilatory agent. Epidermal scrapings were prepared according to the procedures of Hennings et al. (Cancer Res. 28, 53, 1968), homogenized in distilled water at 4° C., and the macromolecules precipitated with 0.4N trichloroacetic acid (TCA). Following 6 washes with absolute ethanol at room temperature, the nucleic acids were hydrolyzed with 0.5N TCA at 70° C. for 5 minutes. The hydrolysate (0.2 ml aliquots) were counted in an Intertechnique scintillation counter and assayed for DNA by the diphenylamine reaction.
The data are expressed as counts per minute (cpm) of tritium per μg of DNA.
A similar oral dose-response experiment with compound 16 and DHEA was performed.
Both of the above tests, i.e., the inhibition of mammalian glucose-6-phosphate dehydrogenase (G6PDH) and the inhibition of tumor promoter (TPA) stimulation of ^3 H-thymidine incorporation in mouse epidermis are recognized as indicators of cancer prophylactic activity. The following Table compares the efficacy of representative compounds of the present invention in these two tests with that of DHEA:
(§1) Male ICR mice were orally intubated with steroid suspended in sesame oil (0.5 ml/mouse) at the indicated dose. Mice not receiving steroid were given sesame oil alone. One hour later mice received topical application of TPA and 20 hours later the rate of ^3 H-thymidine incorporation into the epidermis was determined as described in Table 4.
as §1, with “TPA,” for “TPA”

C57BL/KsJ-db/db mice = assay: Anti-hyperglycemic activity (blood glucose); format: in vivo, mouse (C57BL/KsJ-db/db); conditions: Table 15; DHEA = 1×
Protocol: C57BL/KsJ-db/db 8 week old female mice were obtained and housed in polycarbonate cages in animal quarters maintained at 24° C. with 12 h of light and 12 h of darkness each day.
Mice were placed on a control chow or a chow diet containing either 0.4% DHEA or 0.2% of compound 16.
For determination of blood glucose levels, mice were bled from the orbital sinus using a heparinized capillary tube. 0.2 ml of blood was added to 1.8 ml of water to hemolyze the blood and glucose concentration was determined using the glucose oxidase assay.

T1 sequence (F1MMK2 31-70): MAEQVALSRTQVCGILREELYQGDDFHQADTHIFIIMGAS
T1 sequence (F1MMK2 101-575): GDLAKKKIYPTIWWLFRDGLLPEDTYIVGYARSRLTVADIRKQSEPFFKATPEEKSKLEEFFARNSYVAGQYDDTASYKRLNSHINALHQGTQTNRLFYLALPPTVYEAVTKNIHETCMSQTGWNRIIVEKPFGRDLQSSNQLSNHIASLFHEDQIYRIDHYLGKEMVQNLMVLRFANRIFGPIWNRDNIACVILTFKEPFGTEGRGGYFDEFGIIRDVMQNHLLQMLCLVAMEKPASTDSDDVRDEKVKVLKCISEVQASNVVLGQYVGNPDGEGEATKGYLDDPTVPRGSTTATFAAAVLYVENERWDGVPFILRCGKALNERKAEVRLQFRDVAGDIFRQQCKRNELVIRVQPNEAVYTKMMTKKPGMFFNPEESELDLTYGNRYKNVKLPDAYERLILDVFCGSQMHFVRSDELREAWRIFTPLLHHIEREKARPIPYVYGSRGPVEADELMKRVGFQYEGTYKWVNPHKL

## C[C@]12CC[C@H](O)C[C@@H]1CC[C@@H]1[C@@H]2CC[C@]2(C)C(=O)[C@H](Cl)C[C@@H]12 [Compound 6]
[1]; Conc. 10 μm
  inhibition at 10 µM: 72%

## C[C@]12CCCC[C@@H]1CC[C@@H]1[C@@H]2CC[C@]2(C)C(=O)CC[C@@H]12 [drawing 96]
[2]
  Anti-obesity Activity relative to DHEA: ~ 0.5 ×

## CCCC[C@H]1CC[C@@]2(C)C(=CC[C@@H]3[C@@H]2CC[C@]2(C)C(=O)CC[C@@H]32)C1 [drawing 92]
[1]
  G6PDH Inhibition relative to DHEA: ~ 2 ×

## Androst-5-en-17-one [Compound 15, reference compound]
[1]; Conc. 0.1 μm
  Percent Inhibition (G6PDH): 26%
[1]; Conc. 1 μm
  Percent Inhibition (G6PDH): 40%
[1]; Conc. 10 μm
  Percent Inhibition (G6PDH): 46%

## C[C@H]1CC[C@@]2(C)C(=CC[C@@H]3[C@@H]2CC[C@]2(C)C(=O)[C@H](C)C[C@@H]32)C1 [drawing 88]
[1]
  G6PDH Inhibition relative to DHEA: ~ 0.5 ×

## C[C@@H]1[C@H](O)CC[C@@]2(C)[C@H]1CC[C@@H]1[C@@H]2CC[C@]2(C)C(=O)CC[C@@H]12 [Compound 11]
[1]; Conc. 10 μm
  inhibition at 10 µM: 35%

## CC[C@H]1CC[C@@]2(C)C(=CC[C@@H]3[C@@H]2CC[C@]2(C)C(=O)CC[C@@H]32)C1 [drawing 91]
[1]
  G6PDH Inhibition relative to DHEA: ~ 1.5 ×

## C[C@]12CC[C@H](O)C[C@@H]1CC[C@@H]1[C@@H]2CC[C@]2(C)C(=O)[C@H](Br)C[C@@H]12 [Compound 4]
[1]; Conc. 10 μm
  inhibition at 10 µM: 90%

## C[C@H]1CC[C@@]2(C)C(=CC[C@@H]3[C@@H]2CC[C@]2(C)C(=O)[C@H](O)C[C@@H]32)C1 [drawing 89]
[1]
  G6PDH Inhibition relative to DHEA: ~ 2 ×
[3]
  Inhibition of TPA Effect on Epidermis Following Oral Administration, relative to DHEA: 5 ×

## C[C@]12CC[C@H](F)CC1=CC[C@@H]1[C@@H]2CC[C@]2(C)C(=O)CC[C@@H]12 [Compound 9]
[1]; Conc. 10 μm
  inhibition at 10 µM: 22%

## C[C@]12CC[C@H](O)C[C@@H]1CC[C@@H]1[C@@H]2CC[C@]2(C)C(=O)CC[C@@H]12 [drawing 95]
[2]
  Anti-obesity Activity relative to DHEA: ~ 0.5 ×

## C[C@]12CC[C@H](Cl)CC1=CC[C@@H]1[C@@H]2CC[C@]2(C)C(=O)CC[C@@H]12 [drawing 100]
[2]
  Anti-obesity Activity relative to DHEA: ~ 1 ×

## C[C@H]1CC[C@@]2(C)C(=CC[C@@H]3[C@@H]2CC[C@]2(C)C(=O)CC[C@@H]32)C1 [drawing 102]
C57BL/KsJ-db/db mice
  Anti-diabetic Activity relative to DHEA: 3 ×

## C[C@H]1CC[C@@]2(C)C(=CC[C@@H]3[C@@H]2CC[C@]2(C)C(=O)CC[C@@H]32)C1 [drawing 97]
[2]
  Anti-obesity Activity relative to DHEA: ~ 3 ×

## C[C@]12CC[C@@H](O)C[C@@H]1CC[C@@H]1[C@@H]2CC[C@]2(C)C(=O)CC[C@@H]12 [Compound 10]
[1]; Conc. 10 μm
  inhibition at 10 µM: 35%

## C[C@H]1CC[C@@]2(C)C(=CC[C@@H]3[C@@H]2CC[C@]2(C)C(=O)[C@](C)(F)C[C@@H]32)C1 [Compound 22]
[1]; Conc. 1 μm
  inhibition at 1 µM: 53%
[1]; Conc. 10 μm
  inhibition at 10 µM: 65%

## C[C@H]1CC[C@@]2(C)C(=CC[C@@H]3[C@@H]2CC[C@]2(C)C(=O)[C@H](C)C[C@@H]32)C1 [drawing 99]
[2]
  Anti-obesity Activity relative to DHEA: ~ 1 ×

## C[C@H]1CC[C@@]2(C)C(=CC[C@@H]3[C@@H]2CC[C@]2(C)C(=O)CC[C@@H]32)C1 [drawing 87]
[1]
  G6PDH Inhibition relative to DHEA: ~ 1 ×
[3]
  Inhibition of TPA Effect on Epidermis Following Oral Administration, relative to DHEA: ~ 3 ×

## CCCC[C@H]1CC[C@@]2(C)C(=CC[C@@H]3[C@@H]2CC[C@]2(C)C(=O)CC[C@@H]32)C1 [Compound 17]
[1]; Conc. 0.1 μm
  inhibition at 0.1 µM: 49%
[1]; Conc. 1 μm
  inhibition at 1 µM: 45%
[1]; Conc. 10 μm
  inhibition at 10 µM: 60%

## C[C@H]1CC[C@@]2(C)C(=CC[C@@H]3[C@@H]2CC[C@]2(C)C(=O)[C@H](O)C[C@@H]32)C1 [drawing 98]
[2]
  Anti-obesity Activity relative to DHEA: ~ 0.8 ×

## C[C@]12CC[C@H](Cl)CC1=CC[C@@H]1[C@@H]2CC[C@]2(C)C(=O)CC[C@@H]12 [drawing 90]
[1]
  G6PDH Inhibition relative to DHEA: 0.5 ×
[3]
  Inhibition of TPA Effect on Epidermis Following Oral Administration, relative to DHEA: 1-1.5 ×

## C[C@]12CC[C@H](O)C[C@@H]1CC[C@@H]1[C@@H]2CC[C@]2(C)C(=O)[C@H](I)C[C@@H]12 [Compound 7]
[1]; Conc. 10 μm
  inhibition at 10 µM: 51%

## C[C@]12CC[C@H](O)C[C@@H]1CC[C@@H]1[C@@H]2CC[C@]2(C)C(=O)CC[C@@H]12 [drawing 85]
[1]
  G6PDH Inhibition relative to DHEA: ~ 1.5 ×
[3]
  Inhibition of TPA Effect on Epidermis Following Oral Administration, relative to DHEA: ~ 1 ×

## C[C@]12CC[C@H](Cl)CC1=CC[C@@H]1[C@@H]2CC[C@]2(C)C(=O)CC[C@@H]12 [drawing 103]
C57BL/KsJ-db/db mice
  Anti-diabetic Activity relative to DHEA: 1 ×

## CC[C@H]1CC[C@@]2(C)C(=CC[C@@H]3[C@@H]2CC[C@]2(C)C(=O)CC[C@@H]32)C1 [drawing 101]
[2]
  Anti-obesity Activity relative to DHEA: ~ 0.5 ×

## CC1=C2C[C@@H](O)CC[C@]2(C)[C@H]2CC[C@]3(C)C(=O)CC[C@H]3[C@@H]2C1 [Compound 18]
[1]; Conc. 0.1 μm
  inhibition at 0.1 µM: 10%
[1]; Conc. 1 μm
  inhibition at 1 µM: 18%
[1]; Conc. 10 μm
  inhibition at 10 µM: 45%

## CC1(C)C2=CC[C@@H]3[C@H](CC[C@]4(C)C(=O)CC[C@@H]34)[C@@]2(C)CC[C@@H]1O [Compound 12]
[1]; Conc. 10 μm
  inhibition at 10 µM: 48%

## C[C@H]1CC[C@@]2(C)C(=CC[C@@H]3[C@@H]2CC[C@]2(C)C(=O)[C@H](F)C[C@@H]32)C1 [drawing 94]
[1]
  G6PDH Inhibition relative to DHEA: 5-10 ×
[3]
  Inhibition of TPA Effect on Epidermis Following Oral Administration, relative to DHEA: > 10 ×

## C[C@H]1C2=CC[C@@H]3[C@H](CC[C@]4(C)C(=O)CC[C@@H]34)[C@@]2(C)CC[C@@H]1O [Compound 11a]
[1]; Conc. 1 μm
  inhibition at 1 µM: 72%
[1]; Conc. 10 μm
  inhibition at 10 µM: 87%

## C[C@]12CC[C@H](O)CC1=CC[C@@H]1[C@@H]2CC[C@]2(C)C(=O)[C@H](Br)C[C@@H]12 [Compound 5]
[1]; Conc. 10 μm
  inhibition at 10 µM: 74%

## C[C@]12CCCCC1=CC[C@@H]1[C@@H]2CC[C@]2(C)C(=O)CC[C@@H]12 [Compound 14]
[1]; Conc. 1 μm
  inhibition at 1 µM: 30%
[1]; Conc. 10 μm
  inhibition at 10 µM: 75%

## C[C@@H]1C[C@@]2(C)C(=CC[C@@H]3[C@@H]2CC[C@]2(C)C(=O)CC[C@@H]32)C[C@H]1O
[1]
  G6PDH Inhibition relative to DHEA: ~ 1 ×

## CC[C@H]1CC[C@@]2(C)C(=CC[C@@H]3[C@@H]2CC[C@]2(C)C(=O)CC[C@@H]32)C1 [Compound 13]
[1]; Conc. 0.1 μm
  inhibition at 0.1 µM: 58%
[1]; Conc. 1 μm
  inhibition at 1 µM: 55%
[1]; Conc. 10 μm
  inhibition at 10 µM: 73%

## C[C@]12CC[C@H](O)C[C@@H]1CC[C@@H]1[C@@H]2CC[C@]2(C)C(=O)[C@H](F)C[C@@H]12 [Compound 8]
[1]; Conc. 10 μm
  inhibition at 10 µM: 66%

## C[C@]12CCCC[C@@H]1CC[C@@H]1[C@@H]2CC[C@]2(C)C(=O)CC[C@@H]12 [drawing 86]
[1]
  G6PDH Inhibition relative to DHEA: > 2 ×
[3]
  Inhibition of TPA Effect on Epidermis Following Oral Administration, relative to DHEA: ~ 1.5 ×
